In paper PMC7827406, “Structure–Activity Relationship (SAR) Study of Spautin-1 to Entail the Discovery of Novel NEK4 Inhibitors” (International Journal of Molecular Sciences, 2021) one finds remaining activity data, which are given here for four molecules.

Like-named read-outs stand apart in the source and are kept apart here.

Common to all, as to test: biochemical
Common to all, as to parameters: Eurofins KinaseProfiler full panel at Km ATP, residual kinase activity (%) relative to DMSO

The target in one assay is T1, Abl (H396P) (h) (Homo sapiens, UniProt P00519, H396P).
T1 construct: gene ABL1
The method, boiled down:
(§1)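 Compounds screened at 10 µM in radiometric kinase activity assays at Km ATP, reported as remaining kinase activity (%). A KINOMEscan competition-binding screen at 10 µM measured DNA-tagged kinase retained on immobilized active-site ligand by qPCR.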

For another assay, the target named is KDR(h) (Homo sapiens, UniProt P35968). The method, boiled down: as §1
For a further assay, the target named is T2, BrSK1(h) (Homo sapiens, UniProt Q8TDC3).
T2 sequence (Q8TDC3 1-778): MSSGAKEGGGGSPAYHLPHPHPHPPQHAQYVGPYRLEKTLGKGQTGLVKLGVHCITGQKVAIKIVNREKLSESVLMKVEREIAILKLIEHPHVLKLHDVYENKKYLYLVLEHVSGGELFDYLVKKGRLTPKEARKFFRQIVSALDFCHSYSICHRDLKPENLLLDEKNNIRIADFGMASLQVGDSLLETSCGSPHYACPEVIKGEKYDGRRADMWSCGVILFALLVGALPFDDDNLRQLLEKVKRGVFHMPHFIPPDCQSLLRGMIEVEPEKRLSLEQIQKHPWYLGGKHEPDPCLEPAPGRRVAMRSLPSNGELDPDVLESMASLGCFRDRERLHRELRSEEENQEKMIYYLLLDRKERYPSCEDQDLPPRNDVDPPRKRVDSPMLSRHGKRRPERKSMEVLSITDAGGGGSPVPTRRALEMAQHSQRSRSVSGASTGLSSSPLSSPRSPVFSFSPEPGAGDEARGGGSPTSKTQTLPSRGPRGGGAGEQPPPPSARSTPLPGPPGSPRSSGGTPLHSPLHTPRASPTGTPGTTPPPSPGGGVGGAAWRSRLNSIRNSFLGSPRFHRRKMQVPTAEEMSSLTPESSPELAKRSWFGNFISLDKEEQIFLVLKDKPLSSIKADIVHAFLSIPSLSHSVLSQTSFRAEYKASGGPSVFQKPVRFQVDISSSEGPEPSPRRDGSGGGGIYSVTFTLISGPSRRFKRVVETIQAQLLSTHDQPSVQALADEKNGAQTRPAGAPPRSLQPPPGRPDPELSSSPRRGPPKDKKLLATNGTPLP
In short, it runs like this: as §1

Assay [1] addresses T3, PI3 Kinase (p110b/p85a)(m) (Mus musculus, UniProt Q8BTI9).
T3 construct: gene Pik3cb
The method, boiled down: as §1

Another assay deals with T4, MRCKβ(h) (Homo sapiens, UniProt Q9Y5S2).
T4 construct: gene CDC42BPB
The method, boiled down:
as §1

The next assay deals with T5, PKR(h) (Homo sapiens, UniProt P19525).
T5 construct: gene EIF2AK2
The method, boiled down:
as §1

A further assay has as its target T6, PI3 Kinase (p120g)(h) (Homo sapiens, UniProt P48736).
T6 construct: gene PIK3CG
The method, boiled down: as §1

Where [2] appears, read: read-out: Residual activity (%) Spautin-1 5aa.
Where [3] appears, read: read-out: Residual activity (%) 5as.
Where [4] appears, read: read-out: Residual activity (%) 5at.
The mark [5] stands for this setting: read-out: Residual activity (%) 5ay.

T6 sequence (P48736 whole entry): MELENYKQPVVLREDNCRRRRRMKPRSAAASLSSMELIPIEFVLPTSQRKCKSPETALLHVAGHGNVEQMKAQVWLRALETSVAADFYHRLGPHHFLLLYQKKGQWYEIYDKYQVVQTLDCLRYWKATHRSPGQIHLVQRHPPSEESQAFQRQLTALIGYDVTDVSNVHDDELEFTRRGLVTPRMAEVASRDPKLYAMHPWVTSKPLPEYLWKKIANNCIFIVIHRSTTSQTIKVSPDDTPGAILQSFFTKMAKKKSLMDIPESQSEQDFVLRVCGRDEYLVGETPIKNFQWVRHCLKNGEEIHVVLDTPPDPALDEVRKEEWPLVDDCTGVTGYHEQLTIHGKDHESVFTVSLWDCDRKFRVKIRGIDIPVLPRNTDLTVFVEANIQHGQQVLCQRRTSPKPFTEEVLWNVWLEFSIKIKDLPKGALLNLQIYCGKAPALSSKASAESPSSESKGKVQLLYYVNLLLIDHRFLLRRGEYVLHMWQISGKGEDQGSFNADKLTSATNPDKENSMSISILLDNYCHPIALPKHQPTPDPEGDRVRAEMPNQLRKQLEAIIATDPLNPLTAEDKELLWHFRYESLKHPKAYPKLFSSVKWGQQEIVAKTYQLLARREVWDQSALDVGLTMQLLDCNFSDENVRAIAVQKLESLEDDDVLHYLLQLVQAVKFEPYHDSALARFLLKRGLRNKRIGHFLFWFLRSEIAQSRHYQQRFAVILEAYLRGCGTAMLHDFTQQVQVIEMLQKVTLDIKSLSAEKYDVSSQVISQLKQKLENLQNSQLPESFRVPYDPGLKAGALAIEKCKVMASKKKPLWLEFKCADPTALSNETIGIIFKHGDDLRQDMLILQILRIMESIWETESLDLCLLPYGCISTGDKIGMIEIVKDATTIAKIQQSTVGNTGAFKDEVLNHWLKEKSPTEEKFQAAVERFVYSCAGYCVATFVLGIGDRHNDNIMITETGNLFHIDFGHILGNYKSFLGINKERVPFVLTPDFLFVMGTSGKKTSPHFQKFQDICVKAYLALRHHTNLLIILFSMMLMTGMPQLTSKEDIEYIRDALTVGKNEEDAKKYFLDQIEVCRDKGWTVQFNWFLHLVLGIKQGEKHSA
T5 sequence (P19525 whole entry): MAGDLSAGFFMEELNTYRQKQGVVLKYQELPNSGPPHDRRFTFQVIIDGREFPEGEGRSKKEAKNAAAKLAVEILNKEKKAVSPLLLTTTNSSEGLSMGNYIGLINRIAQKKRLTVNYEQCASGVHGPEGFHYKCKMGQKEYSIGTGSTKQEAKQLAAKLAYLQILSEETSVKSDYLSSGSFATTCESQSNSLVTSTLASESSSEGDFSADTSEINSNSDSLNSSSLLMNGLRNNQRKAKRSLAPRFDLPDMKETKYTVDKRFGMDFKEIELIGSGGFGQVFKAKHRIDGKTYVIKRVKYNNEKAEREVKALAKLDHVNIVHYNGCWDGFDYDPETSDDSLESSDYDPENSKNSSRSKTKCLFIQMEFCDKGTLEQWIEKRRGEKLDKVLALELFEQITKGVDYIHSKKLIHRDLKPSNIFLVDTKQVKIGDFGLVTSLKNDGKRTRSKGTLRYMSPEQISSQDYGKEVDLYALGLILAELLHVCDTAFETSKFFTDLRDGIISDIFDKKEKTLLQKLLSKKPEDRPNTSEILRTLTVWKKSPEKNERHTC
Chain of KDR(h) (P35968 whole entry): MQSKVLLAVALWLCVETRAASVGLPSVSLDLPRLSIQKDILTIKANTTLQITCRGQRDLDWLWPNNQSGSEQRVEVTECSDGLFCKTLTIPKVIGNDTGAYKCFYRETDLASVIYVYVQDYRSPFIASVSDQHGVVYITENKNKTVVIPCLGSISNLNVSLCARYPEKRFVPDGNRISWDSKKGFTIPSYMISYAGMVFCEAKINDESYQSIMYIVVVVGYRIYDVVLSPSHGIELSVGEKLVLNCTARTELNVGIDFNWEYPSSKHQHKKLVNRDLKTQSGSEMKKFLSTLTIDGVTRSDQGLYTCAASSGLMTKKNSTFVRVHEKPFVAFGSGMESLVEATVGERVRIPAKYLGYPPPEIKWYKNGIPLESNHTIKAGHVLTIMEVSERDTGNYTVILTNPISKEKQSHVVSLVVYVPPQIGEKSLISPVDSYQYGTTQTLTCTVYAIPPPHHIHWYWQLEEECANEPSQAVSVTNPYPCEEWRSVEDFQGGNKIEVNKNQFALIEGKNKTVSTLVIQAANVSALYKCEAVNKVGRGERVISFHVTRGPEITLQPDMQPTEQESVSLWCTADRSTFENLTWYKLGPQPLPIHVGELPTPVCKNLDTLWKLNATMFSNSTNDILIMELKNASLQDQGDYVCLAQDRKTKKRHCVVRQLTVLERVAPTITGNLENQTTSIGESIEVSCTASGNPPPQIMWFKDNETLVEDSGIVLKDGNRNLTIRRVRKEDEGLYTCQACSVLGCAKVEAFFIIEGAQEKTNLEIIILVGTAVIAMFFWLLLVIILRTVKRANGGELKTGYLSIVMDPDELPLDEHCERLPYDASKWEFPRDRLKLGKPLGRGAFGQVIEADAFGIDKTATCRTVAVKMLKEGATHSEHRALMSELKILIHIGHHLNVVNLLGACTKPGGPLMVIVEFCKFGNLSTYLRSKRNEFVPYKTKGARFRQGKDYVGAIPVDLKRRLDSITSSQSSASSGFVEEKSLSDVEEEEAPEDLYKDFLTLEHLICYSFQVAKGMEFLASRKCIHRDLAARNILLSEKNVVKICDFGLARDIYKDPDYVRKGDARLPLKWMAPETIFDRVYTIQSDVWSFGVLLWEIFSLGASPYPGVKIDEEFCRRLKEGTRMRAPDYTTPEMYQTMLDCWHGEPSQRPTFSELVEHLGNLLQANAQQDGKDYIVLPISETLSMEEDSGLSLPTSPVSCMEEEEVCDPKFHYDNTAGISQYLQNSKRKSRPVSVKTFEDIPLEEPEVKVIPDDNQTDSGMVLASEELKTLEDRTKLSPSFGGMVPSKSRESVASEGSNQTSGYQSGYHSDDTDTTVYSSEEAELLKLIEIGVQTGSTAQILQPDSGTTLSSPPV
T4 sequence (Q9Y5S2 whole entry): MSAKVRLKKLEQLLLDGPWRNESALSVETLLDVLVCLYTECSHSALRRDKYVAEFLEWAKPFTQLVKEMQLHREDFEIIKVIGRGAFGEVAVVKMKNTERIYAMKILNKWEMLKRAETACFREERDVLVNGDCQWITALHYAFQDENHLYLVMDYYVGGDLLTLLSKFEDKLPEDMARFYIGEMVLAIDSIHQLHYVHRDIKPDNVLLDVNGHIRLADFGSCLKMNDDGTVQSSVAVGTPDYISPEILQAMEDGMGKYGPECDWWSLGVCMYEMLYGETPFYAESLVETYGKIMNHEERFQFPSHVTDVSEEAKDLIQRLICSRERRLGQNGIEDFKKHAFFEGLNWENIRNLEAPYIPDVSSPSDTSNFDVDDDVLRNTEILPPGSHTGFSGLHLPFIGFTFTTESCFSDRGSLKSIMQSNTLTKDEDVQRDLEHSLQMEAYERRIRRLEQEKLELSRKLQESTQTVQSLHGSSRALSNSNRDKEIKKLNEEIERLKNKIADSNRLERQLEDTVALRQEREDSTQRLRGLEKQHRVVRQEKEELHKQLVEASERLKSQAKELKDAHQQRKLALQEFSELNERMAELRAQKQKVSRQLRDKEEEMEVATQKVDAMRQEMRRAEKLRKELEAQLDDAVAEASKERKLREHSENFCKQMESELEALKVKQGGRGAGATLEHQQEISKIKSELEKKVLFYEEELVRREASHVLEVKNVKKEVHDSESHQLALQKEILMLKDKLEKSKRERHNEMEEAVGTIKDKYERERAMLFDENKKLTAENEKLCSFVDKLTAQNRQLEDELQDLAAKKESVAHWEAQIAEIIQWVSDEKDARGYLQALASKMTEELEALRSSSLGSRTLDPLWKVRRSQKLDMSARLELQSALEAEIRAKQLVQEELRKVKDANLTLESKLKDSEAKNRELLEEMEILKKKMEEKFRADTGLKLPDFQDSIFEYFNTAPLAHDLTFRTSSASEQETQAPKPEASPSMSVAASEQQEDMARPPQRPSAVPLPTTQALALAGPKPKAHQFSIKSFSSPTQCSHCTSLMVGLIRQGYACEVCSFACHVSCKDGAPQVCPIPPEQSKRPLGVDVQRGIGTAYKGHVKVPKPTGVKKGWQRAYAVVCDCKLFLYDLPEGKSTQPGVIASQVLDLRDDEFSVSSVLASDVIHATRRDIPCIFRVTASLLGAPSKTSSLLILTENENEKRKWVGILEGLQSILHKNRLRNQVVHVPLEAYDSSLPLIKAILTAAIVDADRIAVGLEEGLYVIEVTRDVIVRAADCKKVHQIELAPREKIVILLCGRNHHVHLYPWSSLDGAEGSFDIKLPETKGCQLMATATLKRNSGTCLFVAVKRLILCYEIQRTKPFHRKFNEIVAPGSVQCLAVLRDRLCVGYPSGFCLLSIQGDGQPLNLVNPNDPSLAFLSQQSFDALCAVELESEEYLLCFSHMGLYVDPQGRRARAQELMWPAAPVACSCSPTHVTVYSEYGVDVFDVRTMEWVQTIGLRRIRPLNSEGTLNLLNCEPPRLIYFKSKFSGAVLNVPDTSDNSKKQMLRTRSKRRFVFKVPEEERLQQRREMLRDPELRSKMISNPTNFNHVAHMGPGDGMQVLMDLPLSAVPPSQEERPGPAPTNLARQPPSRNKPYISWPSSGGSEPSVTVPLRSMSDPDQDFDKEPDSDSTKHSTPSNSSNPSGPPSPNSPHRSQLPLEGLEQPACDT

As to `Fc1ccc(CNc2ncnc3ccc(F)cc23)cc1` [5aa, 6-Fluoro-N-(4-fluorobenzyl)-4-Quinazolinamine], the remaining activity at 10 µM on Abl (H396P) (h) (setting [2]) amounted to 95%; on KDR(h) (setting [2]), 86%; at BrSK1(h) (setting [2]), 85%; in assay [1] (setting [2]), 102%; on MRCKβ(h) (setting [2]) it was 80%; at PKR(h) (setting [2]), 100%. Also, at PI3 Kinase (p120g)(h) (setting [2]), the remaining activity at 10 µM was 91%.
In the case of `Fc1ccc(CCNc2ncnc3ccc(F)cc23)cc1` [5as, 6-Fluoro-N-[2-(4-Fluorophenyl)Ethyl]-4-Quinazolinamine], the remaining activity at 10 µM on Abl (H396P) (h) (setting [3]) came out at 86%; at KDR(h) (setting [3]) it was 77%; on BrSK1(h) (setting [3]), 89%; in assay [1] (setting [3]) it was 98%; on MRCKβ(h) (setting [3]) it was 84%; at PKR(h) (setting [3]), 98%. Moreover, the remaining activity at 10 µM at PI3 Kinase (p120g)(h) (setting [3]) came to 92%.
`Fc1ccc2ncnc(NCCc3ccc(Cl)cc3)c2c1` [5at, N-[2-(4-Chlorophenyl)Ethyl]-6-Fluoro-4-Quinazolinamine]: the remaining activity at 10 µM on Abl (H396P) (h) (setting [4]) is 80%; on KDR(h) (setting [4]) it was 74%; on BrSK1(h) (setting [4]), 112%; in assay [1] (setting [4]) it was 101%; on MRCKβ(h) (setting [4]), 103%; at PKR(h) (setting [4]) it was 94%. For the same molecule, the remaining activity at 10 µM on PI3 Kinase (p120g)(h) (setting [4]) amounted to 90%.
Turning to `COc1ccc2ncnc(Nc3cccc(F)c3)c2c1` [5ay, N-(3-Fluorophenyl)-6-Methoxy-4-Quinazolinamine], the remaining activity at 10 µM on Abl (H396P) (h) (setting [5]) came out at 76%; on KDR(h) (setting [5]), 64%; on BrSK1(h) (setting [5]), 30%; in assay [1] (setting [5]), 99%; on MRCKβ(h) (setting [5]), 79%; at PKR(h) (setting [5]) it was 71%. Moreover, the remaining activity at 10 µM at PI3 Kinase (p120g)(h) (setting [5]) turned out to be 91%.
